Results published in patent publication US20200017495A1, “NOVEL HETEROCYCLIC COMPOUNDS AND THEIR USE IN PREVENTING OR TREATING BACTERIAL INFECTIONS” (priority 2017, published 2020).
“And” between values parts separate entries of the source, which are not always exact repeats. Equal entries are not always repeated. Where two headings read alike, the source gives them in different places.

Legend:
Type in all cases: cell-based
[1] = system: Enterobacter cloacae (ECL) isolates; experiment: MIC of compounds alone and combined with antibacterials, broth microdilution (CLSI)
Outline: (§1)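 Log-phase isolates were inoculated at a final 5.10^5 CFU/mL in cation-adjusted Mueller-Hinton broth and incubated 16-20 h at 35° C in ambient air. MIC was the lowest concentration preventing visible growth; for combinations, the antibacterial MIC was read at each compound concentration.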

[2] = system: Providencia rettgeri (PRE) isolates; experiment: as above
Outline: as §1

[3] = system: Proteus mirabilis (PMI) isolates; experiment: microbe, parasite or virus in culture
Outline: as §1

[4] = system: Citrobacter murliniae (CMU) isolates; experiment: MIC of compounds alone and combined with antibacterials, broth microdilution (CLSI)
Outline: (§2)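 Growth inhibition was read visually after 16-20 h at 35° C, giving compound MICs and antibacterial MICs at each fixed compound level. Bacteria in log phase were inoculated at 5.10^5 CFU/mL in ca-MHB onto DMSO-spotted compound or compound/antibacterial dilutions per CLSI microdilution.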

[5] = system: Providencia stuartii (PST) isolates; experiment: as above
Outline: as §2

[6] = system: Salmonella typhimurium (STY) isolates; experiment: as above; details: STY S3371; AF2 @ 8 μg/mL
Outline: as §2

For CC1(C)S[C@@H]2[C@H](NC(=O)[C@H](N)c3ccc(O)cc3)C(=O)N2[C@H]1C(=O)O [AMX, Amoxicillin], which “MIC ATB in combination” value [1] is on record?
The value was greater than 128 µg/mL.

What about the “MIC ATB in combination” value ([1]; ECL 190408, AF2 @ 8 μg/mL) of the same compound?
Its value is “<=0.25 μg/mL”.

And the “MIC ATB in combination” value ([1]; ECL 200322, AF2 @ 8 μg/mL)?
Its value is less than 0.25 µg/mL.

What about the “MIC ATB in combination” value ([1]; ECL 260253, AF2 @ 8 μg/mL) of the same compound?
Its value is less than 0.25 µg/mL.

And the “MIC ATB in combination” value ([1]; ECL 260323, AF2 @ 8 μg/mL)?
The value was less than 0.25 µg/mL.

What about the “MIC ATB in combination” value ([1]; ECL 260508, AF2 @ 8 μg/mL) of the same compound?
The value was less than 0.25 µg/mL.

What about the “MIC ATB in combination” value ([1]; ECL P99, CLA @ 4 μg/mL) of the same compound?
The value was greater than 512 µg/mL.

What about the “MIC ATB in combination” value ([1]; ECL UFR12, AF2 @ 8 μg/mL) of the same compound?
Its value is less than 0.25 µg/mL.

What about the “MIC ATB in combination” value ([1]; ECL UFR38, AF2 @ 8 μg/mL) of the same compound?
Its value is “<=0.25 μg/mL”.

And the “MIC ATB in combination” value ([1]; ECL UFR51, AF2 @ 8 μg/mL)?
The value was less than 0.25 µg/mL.

What about the “MIC ATB in combination” value ([1]; ECL UFR70, AF2 @ 8 μg/mL) of the same compound?
The value was 0.5 µg/mL.

And the “MIC ATB in combination” value ([1]; ECL UFR85, AF2 @ 8 μg/mL)?
Its value is less than 0.25 µg/mL.

And the MIC ([1]; strain ECL 2185D, genotype OXA-163)?
The MIC was greater than 256 µg/mL.

And the MIC ([1]; strain ECL 190310, genotype AmpC)?
The MIC was greater than 256 µg/mL.

What about the MIC ([1]; strain ECL 190408, genotype TEM-1, CTX-M-15, OXA-1) of the same compound?
Its MIC is greater than 256 µg/mL.

And the MIC ([1]; strain ECL 200138, genotype AmpC)?
The MIC was greater than 256 µg/mL.

And the MIC ([1]; strain ECL 200322, genotype TEM-1, CTX-M-15, OXA-1)?
The MIC was greater than 256 µg/mL.

And the MIC ([1]; strain ECL 260033, genotype AmpC)?
The MIC was greater than 256 µg/mL.

And the MIC ([1]; strain ECL 260253, genotype TEM-1, KPC-3)?
The MIC was greater than 256 µg/mL.

And the MIC ([1]; strain ECL 260323, genotype AmpC)?
The MIC was greater than 256 µg/mL.

What about the MIC ([1]; strain ECL 260508, genotype TEM-1, CTX-M-15) of the same compound?
Its MIC is greater than 256 µg/mL.

What about the MIC ([1]; strain ECL HAN, genotype OXA-35) of the same compound?
Its MIC is greater than 256 µg/mL.

What about the MIC ([1]; strain ECL NEM146383, genotype AmpC) of the same compound?
The MIC was greater than 256 µg/mL.

And the MIC ([1]; strain ECL P99, genotype AmpC)?
Its MIC is greater than 1024 µg/mL.

And the MIC ([1]; strain ECL UFR12, genotype CTX-M-9, OXA-48)?
Its MIC is greater than 256 µg/mL.

And the MIC ([1]; strain ECL UFR13, genotype TEM-1, SHV-12, CTX-M-9, OXA-48)?
Its MIC is greater than 256 µg/mL.

And the MIC ([1]; strain ECL UFR14, genotype TEM-1, SHV-12, CTX-M-15, DHA-1, OXA-1, OXA-48)?
Its MIC is greater than 256 µg/mL.

And the MIC ([1]; strain ECL UFR38, genotype CTX-M-15, NDM-1)?
Its MIC is greater than 256 µg/mL.

And the MIC ([1]; strain ECL UFR51, genotype SHV-12, IMP-8)?
Its MIC is greater than 256 µg/mL.

And the MIC ([1]; strain ECL UFR60, genotype TEM-1, CTX-M-15, KPC-2)?
The MIC was greater than 256 µg/mL.

What about the MIC ([1]; strain ECL UFR70, genotype TEM-1, CTX-M-15, CMY-2, OXA-1, Porin loss) of the same compound?
The MIC was greater than 256 µg/mL.

What about the MIC ([1]; strain ECL UFR84, genotype TEM-1, AmpC, OXA-1) of the same compound?
Its MIC is greater than 256 µg/mL.

And the MIC ([1]; strain ECL UFR85, genotype TEM-1, CTX-M-15, AmpC)?
The MIC was greater than 256 µg/mL.

What about the MIC ([1]; strain ECL UFR192, genotype TEM-1, NDM-1, antibiotic alone) of the same compound?
The MIC was greater than 128 µg/mL.

What about the MIC ([1]; strain ECL UFR193, genotype TEM-1, CTX-M-15, OXA-1, NDM-1, RmtC, antibiotic alone) of the same compound?
The MIC was greater than 128 µg/mL.

And the MIC ([1]; strain ECL UFR194, genotype OXA-48)?
The MIC was greater than 128 µg/mL.

And the MIC ([1]; strain ECL UFR195, genotype TEM-1, CTX-M-15, OXA-1, OXA-48)?
The MIC was greater than 128 µg/mL.

And the MIC ([1]; strain ECL UFR196, genotype TEM-1, CTX-M-15, OXA-1, OXA-48)?
Its MIC is greater than 128 µg/mL.

What about the MIC ([1]; strain ECL UFR197, genotype TEM-1, CTX-M-15, OXA-1, OXA-48) of the same compound?
Its MIC is greater than 128 µg/mL.

And the MIC ([1]; strain ECL UFR198, genotype TEM-1, SHV-12, CTX-M-15, DHA-1, OXA-1, OXA-48)?
Its MIC is greater than 128 µg/mL.

And the MIC ([1]; strain ECL UFR200, genotype TEM-1, SHV-12, KPC-2)?
The MIC was greater than 128 µg/mL.

What about the MIC ([1]; strain ECL UFR203, genotype TEM-1, SHV-12, VIM-1, antibiotic alone) of the same compound?
The MIC was greater than 128 µg/mL.

And the MIC ([1]; strain ECL UFR214, genotype TEM-1, SHV-31, CTX-M-15, VIM-4, antibiotic alone)?
Its MIC is greater than 128 µg/mL.

What about the MIC ([1]; strain ECL UFR252PT, genotype VIM-2, antibiotic alone) of the same compound?
Its MIC is greater than 128 µg/mL.

And the “MIC ATB in combination” value [2]?
The value was greater than 128 µg/mL.

What about the MIC ([2]; strain PRE UFR96, genotype CTX-M-15, NDM-1) of the same compound?
The MIC was greater than 128 µg/mL.

What about the MIC ([2]; strain PRE UFR97, genotype TEM-1, NDM-1) of the same compound?
The MIC was greater than 128 µg/mL.

What about the MIC ([2]; strain PRE UFR99, genotype OXA-1, OXA-181) of the same compound?
Its MIC is greater than 128 µg/mL.

What about the MIC ([2]; strain PRE UFR236, genotype TEM-1, OXA-48) of the same compound?
Its MIC is greater than 128 µg/mL.

What about the “MIC ATB in combination” value ([3]; PMI UFR82, AF2 @ 8 μg/mL) of the same compound?
The value was less than 0.25 µg/mL.

What about the “MIC ATB in combination” value ([3]; PMI UFR126, CLA @ 4 μg/mL) of the same compound?
Its value is 16 µg/mL.

And the “MIC ATB in combination” value ([3]; PMI UFR127, CLA @ 4 μg/mL)?
The value was 32 µg/mL.

And the “MIC ATB in combination” value ([3]; PMI UFR129, CLA @ 4 μg/mL)?
The value was 2 µg/mL.

What about the “MIC ATB in combination” value ([3]; PMI UFR237, CLA @ 4 μg/mL) of the same compound?
Its value is 4 µg/mL.

And the MIC ([3]; strain PMI UFR82, genotype CMY-2)?
The MIC was 256 µg/mL.

What about the MIC ([3]; strain PMI UFR120, genotype TEM-1, SHV-11, CTX-M-14) of the same compound?
Its MIC is greater than 128 µg/mL.

And the MIC ([3]; strain PMI UFR121, genotype TEM-1, TEM-52)?
The MIC was greater than 128 µg/mL.

And the MIC ([3]; strain PMI UFR122, genotype TEM-1, CTX-M-15)?
Its MIC is greater than 128 µg/mL.

And the MIC ([3]; strain PMI UFR123, genotype CTX-M-1)?
The MIC was greater than 128 µg/mL.

What about the MIC ([3]; strain PMI UFR124, genotype CTX-M-2) of the same compound?
The MIC was greater than 128 µg/mL.

What about the MIC ([3]; strain PMI UFR125, genotype CTX-M-71) of the same compound?
The MIC was greater than 128 µg/mL.

And the MIC ([3]; strain PMI UFR126, genotype TEM-2, PER-1)?
The MIC was greater than 128 µg/mL.

And the MIC ([3]; strain PMI UFR127, genotype VEB-1)?
The MIC was greater than 128 µg/mL.

And the MIC ([3]; strain PMI UFR128, genotype VEB-1, OXA-10)?
The MIC was greater than 128 µg/mL.

What about the MIC ([3]; strain PMI UFR129, genotype TEM-1, VEB-6) of the same compound?
The MIC was greater than 128 µg/mL.

And the MIC ([3]; strain PMI UFR130, genotype CMY-2)?
Its MIC is greater than 128 µg/mL.

And the MIC ([3]; strain PMI UFR131, genotype CMY-16, OXA-1, OXA-10, NDM-1, ArmA)?
The MIC was greater than 128 µg/mL.

What about the MIC ([3]; strain PMI UFR132, genotype VEB-6, DHA-1, NDM-1, AphA6, AacA4) of the same compound?
The MIC was greater than 128 µg/mL.

And the MIC ([3]; strain PMI UFR133, genotype OXA-23)?
Its MIC is greater than 128 µg/mL.

And the MIC ([3]; strain PMI UFR237, genotype VEB-6)?
The MIC was greater than 128 µg/mL.

And the “MIC ATB in combination” value [4]?
Its value is greater than 128 µg/mL.

And the MIC ([4]; strain CMU 210102, genotype VIM-4)?
The MIC was greater than 256 µg/mL.

What about the “MIC ATB in combination” value [5] of the same compound?
Its value is 128 µg/mL and >128 µg/mL.

And the “MIC ATB in combination” value ([5]; PST UFR120, CLA @ 4 μg/mL)?
Its value is 8 µg/mL.

And the “MIC ATB in combination” value ([5]; PST UFR121, CLA @ 4 μg/mL)?
Its value is 4 µg/mL.

What about the “MIC ATB in combination” value ([5]; PST UFR122, CLA @ 4 μg/mL) of the same compound?
Its value is 8 µg/mL.

What about the “MIC ATB in combination” value ([5]; PST UFR123, CLA @ 4 μg/mL) of the same compound?
The value was 16 µg/mL.

And the “MIC ATB in combination” value ([5]; PST UFR125, CLA @ 4 μg/mL)?
The value was 4 µg/mL.

And the MIC ([5]; strain PST UFR94, genotype CTX-M-14)?
The MIC was greater than 128 µg/mL.

And the MIC ([5]; strain PST UFR95, genotype TEM-24)?
The MIC was greater than 128 µg/mL.

And the MIC ([5]; strain PST UFR98, genotype TEM-1, CMY-6, OXA-1, NDM-1, RmtC)?
Its MIC is greater than 128 µg/mL.

What about the MIC ([5]; strain PST UFR235, genotype VEB-1) of the same compound?
The MIC was greater than 128 µg/mL.

And the “MIC ATB in combination” value [6]?
Its value is less than 0.25 µg/mL.
